In general, IC50 refers to the midpoint of a concentration-inhibition curve. Lower therefore signals greater potency in that assay.

In patent US11136337B2, “Pyrazole- and indazole-substituted oxadiazolopyridine derivatives for use as ghrelin O-acyl transferase (GOAT) inhibitors” (Boehringer Ingelheim International GmbH, priority 2018, dated 2021) one finds IC50 data, which are given here for 42 compounds.

The experiment has as its target human GOAT (Homo sapiens (Human), UniProt Q96T53). Description: Determination of hGOAT activity in HEK293 cells after incubation with test compound (acyl-ghrelin ELISA). In kind it is cell-based. The note with it: HEK293 cells stably expressing human GOAT and preproghrelin; 5 h incubation with octanoate-BSA; acyl-ghrelin in medium by ELISA. How it is done: Determination of hGOAT Activity in HEK293 Cells after Incubation with Test Compound
HEK293 cells stably transfected with two expression vectors, one coding for preproghrelin cDNA and a second for the expression of human GOAT cDNA are used as a cellular model. After feeding the cells with octanoic acid for 5 hours, acyl-ghrelin is measured in cell culture medium by an ELISA procedure.
Cellline: Hek293 hGOAT/PPGhrl Clone #1B8Sodium octanoate, Sigma, Cat.-No. C5038
BD Poly-D-Lysin 384-well Plates, black-clear polystyrene BD Bioscience Cat.-No. […] ELISA human acylated Ghrelin Kit purchased from Bertin Pharman (detailed composition of buffers e.g. wash-puffer, ELISA buffer not known)
Cells are plated with a density of 5000 cells/well in 384-well poly-D-lysin plates and incubated for 1 day at 37° C., 5% CO2 in DMEM medium, 10% FCS, 1×NEAA, Puromycin (0.5 μg/ml) and G418 (1 mg/ml). Then the medium is changed to a identical medium without FCS and containing Octanoate-BSA (final concentration 100 μM each) and compound in DMSO (final DMSO concentration 0.3%). After incubation for 5 hours acylghrelin in the medium is measured by ELISA.
The medium sample is diluted 1:25 in Elisa buffer, a 25 μl aliquot is transferred to a 384-well ELISA plate previously washed 4 times with 100 μL wash buffer, and 25 μl tracer-solution is added. After incubation overnight (˜20 h) at 4° C. temperature the plate is washed 4 times with 100 μl wash-buffer per well. Finally 50 μl Ellman's reagent is added to each well and the plate is incubated in the dark for 20 minutes. The absorbance is measured at 405 nm in an Envision multilabel reader and the amount of acylated ghrelin is calculated according to a acylated ghrelin standard curve provided in the same plate.
The analysis of the data is performed by calculation of the percentage of acyl-ghrelin produced in the presence of test compound compared to the amount of acyl-ghrelin produced in the vehicle control samples. An inhibitor of the GOAT enzyme will give values between 100% CTL (no inhibition) and 0% CTL (complete inhibition).
IC50 values are calculated with Assay Explorer or other suited software based on curve fitting of results of 8 different compound concentrations.

human GOAT, sequence (Q96T53 whole entry): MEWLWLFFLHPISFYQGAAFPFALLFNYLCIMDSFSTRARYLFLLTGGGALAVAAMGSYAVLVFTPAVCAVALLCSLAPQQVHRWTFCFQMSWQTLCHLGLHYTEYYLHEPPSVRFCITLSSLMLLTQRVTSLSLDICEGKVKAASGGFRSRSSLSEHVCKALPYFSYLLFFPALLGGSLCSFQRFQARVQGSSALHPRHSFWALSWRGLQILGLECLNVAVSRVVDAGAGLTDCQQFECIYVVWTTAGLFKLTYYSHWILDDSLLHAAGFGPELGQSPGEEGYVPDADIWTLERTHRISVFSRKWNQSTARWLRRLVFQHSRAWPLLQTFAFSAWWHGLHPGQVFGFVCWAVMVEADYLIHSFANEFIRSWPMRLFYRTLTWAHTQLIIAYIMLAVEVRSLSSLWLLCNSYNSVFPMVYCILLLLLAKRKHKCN

Regarding `CCOC(=O)c1cnn(Cc2c(C)nc3nonc3c2N)c1` [Example 1.1, Ethyl 1-({7-amino-5-methyl-[1,2,5]oxadiazolo[3,4-b]pyridin-6-yl}methyl)-1H-pyrazole-4-carboxylate], it took 1.7 nM to reach half-maximal inhibition (IC50).
In turn, `Cc1nc2nonc2c(N)c1Cn1cc(-c2ccc(C#N)cc2)cn1` [Example 1.2] returned an IC50 of 1.6 nM.
The figure for `Cc1nc2nonc2c(N)c1Cn1cc(-c2c(C)noc2C)cn1` [Example 1.3] is 2.2 nM; for `Cc1nc2nonc2c(N)c1Cn1cc(C(C)(C)C)cn1` [Example 1.4] it is 0.51 nM; for `Cc1nc2nonc2c(N)c1Cn1cc(NC(=O)OC(C)(C)C)cn1` [Example 1.5] it is 3.3 nM.
The figure for `COC(=O)c1ccn(Cc2c(C)nc3nonc3c2N)n1` [Example 1.6, Methyl 1-({7-amino-5-methyl-[1,2,5]oxadiazolo[3,4-b]pyridin-6-yl}methyl)-1H-pyrazole-3-carboxylate] is 0.96 nM.
The figure for `Cc1nc2nonc2c(N)c1Cn1cc(Br)c(C(F)(F)F)n1` [Example 1.7, 6-{[4-Bromo-3-(trifluoromethyl)-1H-pyrazol-1-yl]methyl}-5-methyl-[1,2,5]oxadiazolo[3,4-b]pyridin-7-amine] is 0.6 nM; for `Cc1nc2nonc2c(N)c1Cn1cc(C(F)(F)F)cn1` [Example 1.8] it is 1.4 nM; for `Cc1nc2nonc2c(N)c1Cn1cc2cc(C#N)ccc2n1` [Example 1.9] it is 4.4 nM.
Turning to `Cc1nc2nonc2c(N)c1Cn1ccc(-c2ccccc2F)n1` [Example 2.1, 6-{[3-(2-Fluorophenyl)-1H-pyrazol-1-yl]methyl}-5-methyl-[1,2,5]oxadiazolo[3,4-b]pyridin-7-amine], the IC50 was 0.035 nM.
The figure for `Cc1nc2nonc2c(N)c1Cn1cc(-c2ccccc2F)cn1` [Example 2.2] is 0.23 nM.
The figure for `Cc1nc2nonc2c(N)c1Cn1nccc1-c1ccccc1F` [Example 2.3] is 0.28 nM; for `Cc1nc2nonc2c(N)c1Cn1ccc(C=O)n1` [Example 2.4, 1-({7-amino-5-methyl-[1,2,5]oxadiazolo[3,4-b]pyridin-6-yl}methyl)-1H-pyrazole-3-carbaldehyde] it is 1.7 nM; for `Cc1nc2nonc2c(N)c1Cn1ccc(N2CCCS2(=O)=O)n1` [Example 2.5] it is 0.18 nM.
The figure for `Cc1nc2nonc2c(N)c1Cn1cc(Br)cn1` [Example 2.6] is 4.4 nM; for `Cc1nc2nonc2c(N)c1Cn1cc(-c2cccc(S(C)(=O)=O)c2)c(C(F)(F)F)n1` [Example 3.1, 6-{[4-(3-Methanesulfonylphenyl)-3-(trifluoromethyl)-1H-pyrazol-1-yl]methyl}-5-methyl-[1,2,5]oxadiazolo[3,4-b]pyridin-7-amine] it is 3.3 nM.
Turning to `Cc1nc2nonc2c(N)c1Cn1cc(-c2ccc(F)nc2)c(C(F)(F)F)n1` [Example 3.2], half-maximal inhibition (IC50) was put at 1.2 nM.
`Cc1nc2nonc2c(N)c1Cn1cc(-c2ccnn2C)c(C(F)(F)F)n1` [Example 3.3] yielded an IC50 of 2.6 nM.
Turning to `Cc1nc2nonc2c(N)c1Cn1cc(-c2cnn(C)c2)c(C(F)(F)F)n1` [Example 3.4], the midpoint of inhibition, the IC50, lay at 5.1 nM.
For the compound `Cc1nc2nonc2c(N)c1Cn1ccc(-c2cccnc2F)n1` [Example 4.1, 6-{[3-(2-Fluoropyridin-3-yl)-1H-pyrazol-1-yl]methyl}-5-methyl-[1,2,5]oxadiazolo[3,4-b]pyridin-7-amine], the IC50 worked out at 0.034 nM.
The figure for `Cc1nc2nonc2c(N)c1Cn1ccc(-c2c[nH]nc2C(F)(F)F)n1` [Example 4.2] is 0.11 nM; for `Cc1nc2nonc2c(N)c1Cn1ccc(-c2cncs2)n1` [Example 4.3] it is 0.12 nM; for `Cc1nc2nonc2c(N)c1Cn1ccc(-c2c(C)noc2C)n1` [Example 4.4] it is 0.29 nM.
The figure for `Cc1nc2nonc2c(N)c1Cn1ccc(-c2cnoc2)n1` [Example 4.5] is 3.8 nM; for `Cc1nc2nonc2c(N)c1Cn1ccc(-c2ccco2)n1` [Example 4.6] it is 0.17 nM.
The figure for `Cc1nc2nonc2c(N)c1Cn1ccc(-c2cncn2C)n1` [Example 4.7] is 0.37 nM; for `Cc1nc2nonc2c(N)c1Cn1ccc(-c2cccc(S(C)(=O)=O)c2)n1` [Example 4.8] it is 0.096 nM.
As to `Cc1nc2nonc2c(N)c1Cn1ccc(-c2nn(C)c3ccccc23)n1` [Example 4.9], it took 0.04 nM to reach half-maximal inhibition (IC50).
`Cc1nc2nonc2c(N)c1Cn1ccc(-c2cnn3cccnc23)n1` [Example 4.10] had an IC50 of 0.15 nM.
The figure for `Cc1nc2nonc2c(N)c1Cn1ccc(-c2cn(C)c3ncccc23)n1` [Example 4.11] is 0.19 nM; for `Cc1nc2nonc2c(N)c1Cn1ccc(-c2ccc(S(C)(=O)=O)cc2F)n1` [Example 4.12] it is 0.076 nM.
The compound `Cc1nc2nonc2c(N)c1Cn1ccc(-c2ccc(C#N)c(F)c2)n1` [Example 4.13] displayed an IC50 of 0.38 nM.
`Cc1nc2nonc2c(N)c1Cn1ccc(-c2ccnn2C)n1` [Example 4.14] showed an IC50 of 0.2 nM.
The figure for `Cc1nc2nonc2c(N)c1Cn1cc(-c2ccn[nH]2)cn1` [Example 4.15] is 5.6 nM; for `Cc1nc2nonc2c(N)c1Cn1cc(-c2cnn(C)c2)cn1` [Example 4.16] it is 3.6 nM.
The figure for `Cc1nc2nonc2c(N)c1Cn1ccc(-c2cccc(C(F)(F)F)n2)n1` [Example 5.1, 5-Methyl-6-({3-[6-(trifluoromethyl)pyridin-2-yl]-1H-pyrazol-1-yl}methyl)-[1,2,5]oxadiazolo[3,4-b]pyridin-7-amine] is 0.028 nM; for `Cc1nc2nonc2c(N)c1Cn1cc2ccccc2n1` [Example 6.1, 6-[(2H-Indazol-2-yl)methyl]-5-methyl-[1,2,5]oxadiazolo[3,4-b]pyridin-7-amine] it is 0.69 nM.
The figure for `Cc1nc2nonc2c(N)c1Cn1ccc(C(=O)N2CCC(F)(F)C2)n1` [Example 7.1, 6-{[3-(3,3-Difluoropyrrolidine-1-carbonyl)-1H-pyrazol-1-yl]methyl}-5-methyl-[1,2,5]oxadiazolo[3,4-b]pyridin-7-amine] is 0.84 nM.
`Cc1nc2nonc2c(N)c1Cn1ccc(C(=O)N2CCC(F)(F)CC2)n1` [Example 7.2] yielded a 50% inhibitory concentration (IC50) of 3.5 nM.
In turn, `Cc1nc2nonc2c(N)c1Cn1ccc(C(=O)N2CCC(O)(C(F)(F)F)C2)n1` (stereo not drawn) [Example 7.3] displayed an IC50 of 5.1 nM.
As to `Cc1nc2nonc2c(N)c1Cn1ccc(NC(=O)C(NC(=O)OCc2ccccc2)C(C)C)n1` (stereo not drawn) [Example 8.1, Benzyl N-(1-{[1-({7-amino-5-methyl-[1,2,5]oxadiazolo[3,4-b]pyridin-6-yl}methyl)-1H-pyrazol-3-yl]carbamoyl}-2-methylpropyl)carbamate], the half-maximal inhibitory concentration (IC50) stood at 3.2 nM.
`Cc1nc2nonc2c(N)c1Cn1ccc(CN2CCC(F)(F)CC2)n1` [Example 9.1, 6-({3-[(4,4-Difluoropiperidin-1-yl)methyl]-1H-pyrazol-1-yl}methyl)-5-methyl-[1,2,5]oxadiazolo [3,4-b]pyridin-7-amine] returned an IC50 of 7.4 nM.
